The record followed here is patent publication US20240246942A1, “KINASE INHIBITORS FOR THE TREATMENT OF NEURODEGENERATIVE DISEASES” (priority 2020, published 2024).

Holding throughout (assay): biochemical
For assay [1], the target named is T1, panel of 374 wild-type kinases (Homo sapiens, UniProt O14920).
T1 construct: purchased Reaction Biology Corporation
T1 sequence (O14920 1-756): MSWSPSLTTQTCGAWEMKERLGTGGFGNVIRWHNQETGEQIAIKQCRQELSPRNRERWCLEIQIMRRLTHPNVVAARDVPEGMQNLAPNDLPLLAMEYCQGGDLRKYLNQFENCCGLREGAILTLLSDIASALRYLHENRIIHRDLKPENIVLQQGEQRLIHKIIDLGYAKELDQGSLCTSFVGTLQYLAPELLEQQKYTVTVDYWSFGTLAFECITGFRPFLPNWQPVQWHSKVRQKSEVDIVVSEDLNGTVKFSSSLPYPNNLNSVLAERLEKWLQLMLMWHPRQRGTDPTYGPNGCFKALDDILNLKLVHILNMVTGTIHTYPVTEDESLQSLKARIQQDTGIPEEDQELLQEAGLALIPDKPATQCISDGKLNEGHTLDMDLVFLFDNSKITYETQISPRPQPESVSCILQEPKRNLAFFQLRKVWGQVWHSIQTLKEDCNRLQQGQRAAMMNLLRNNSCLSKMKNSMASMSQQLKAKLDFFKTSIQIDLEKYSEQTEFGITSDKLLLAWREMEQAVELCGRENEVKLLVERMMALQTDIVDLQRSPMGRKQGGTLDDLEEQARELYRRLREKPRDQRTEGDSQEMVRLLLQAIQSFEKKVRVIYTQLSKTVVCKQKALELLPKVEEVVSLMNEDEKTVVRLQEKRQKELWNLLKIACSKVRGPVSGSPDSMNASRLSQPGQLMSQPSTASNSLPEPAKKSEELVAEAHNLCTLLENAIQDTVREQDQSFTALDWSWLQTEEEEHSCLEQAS
To be noted: read-out: % Enzyme Activity (relative to DMSO controls), IKKb/IKBKB.

Assay [2] deals with T2, panel of 374 wild-type kinases (Homo sapiens, UniProt Q96PN8).
T2 construct: purchased Reaction Biology Corporation
T2 sequence (Q96PN8 1-268): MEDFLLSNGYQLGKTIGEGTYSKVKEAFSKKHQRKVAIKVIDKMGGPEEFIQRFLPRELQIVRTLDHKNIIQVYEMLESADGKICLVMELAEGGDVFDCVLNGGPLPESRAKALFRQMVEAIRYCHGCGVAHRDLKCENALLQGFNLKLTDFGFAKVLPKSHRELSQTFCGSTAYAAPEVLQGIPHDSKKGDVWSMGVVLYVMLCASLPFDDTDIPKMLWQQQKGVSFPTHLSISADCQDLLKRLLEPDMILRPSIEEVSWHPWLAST
The following applies: read-out: % Enzyme Activity (relative to DMSO controls), kinase TSSK3/STK22C.

Assay [3] deals with T3, panel of 374 wild-type kinases (Homo sapiens, UniProt Q8WXR4).
T3 construct: purchased Reaction Biology Corporation
T3 sequence (Q8WXR4 1-1341): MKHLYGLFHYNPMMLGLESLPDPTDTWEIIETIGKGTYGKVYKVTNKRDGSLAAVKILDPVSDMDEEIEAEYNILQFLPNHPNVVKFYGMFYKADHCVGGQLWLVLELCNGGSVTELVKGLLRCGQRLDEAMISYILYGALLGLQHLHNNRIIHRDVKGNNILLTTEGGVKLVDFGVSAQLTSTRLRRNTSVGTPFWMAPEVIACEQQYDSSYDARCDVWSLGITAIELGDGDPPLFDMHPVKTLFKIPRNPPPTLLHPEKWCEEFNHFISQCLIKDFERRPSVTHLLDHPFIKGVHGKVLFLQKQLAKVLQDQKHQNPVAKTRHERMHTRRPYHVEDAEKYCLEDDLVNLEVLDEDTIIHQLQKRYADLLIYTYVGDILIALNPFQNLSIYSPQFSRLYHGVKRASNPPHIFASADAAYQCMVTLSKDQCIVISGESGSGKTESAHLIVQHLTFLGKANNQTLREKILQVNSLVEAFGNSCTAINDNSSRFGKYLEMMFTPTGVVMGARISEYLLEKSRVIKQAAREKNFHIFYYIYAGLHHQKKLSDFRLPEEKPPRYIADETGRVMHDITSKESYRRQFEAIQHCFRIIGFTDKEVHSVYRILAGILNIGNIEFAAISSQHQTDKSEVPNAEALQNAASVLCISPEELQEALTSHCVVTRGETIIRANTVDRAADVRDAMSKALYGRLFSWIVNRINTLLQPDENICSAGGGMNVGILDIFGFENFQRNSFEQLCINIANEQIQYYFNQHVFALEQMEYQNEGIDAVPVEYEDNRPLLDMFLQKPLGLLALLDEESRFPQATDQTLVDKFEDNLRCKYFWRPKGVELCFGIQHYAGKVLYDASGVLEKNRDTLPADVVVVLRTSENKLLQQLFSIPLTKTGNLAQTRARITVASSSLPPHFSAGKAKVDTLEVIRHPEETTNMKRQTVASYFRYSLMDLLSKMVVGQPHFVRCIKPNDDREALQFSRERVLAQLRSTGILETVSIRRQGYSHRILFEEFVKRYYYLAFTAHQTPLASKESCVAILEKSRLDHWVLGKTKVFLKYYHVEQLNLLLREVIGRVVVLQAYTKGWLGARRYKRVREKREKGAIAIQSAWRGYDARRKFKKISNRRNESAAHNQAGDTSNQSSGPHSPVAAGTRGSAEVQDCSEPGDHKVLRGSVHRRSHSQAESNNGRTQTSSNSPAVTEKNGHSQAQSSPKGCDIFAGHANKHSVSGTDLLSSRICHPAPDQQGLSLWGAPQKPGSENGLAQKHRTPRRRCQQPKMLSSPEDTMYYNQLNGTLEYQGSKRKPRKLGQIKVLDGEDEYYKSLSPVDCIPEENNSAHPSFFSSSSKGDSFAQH
The following applies: read-out: % Enzyme Activity (relative to DMSO controls), MYO3b.

The target in assay [4] is T4, panel of 374 wild-type kinases (Homo sapiens, UniProt Q9P286).
T4 construct: purchased Reaction Biology Corporation
To be noted: read-out: % Enzyme Activity (relative to DMSO controls), kinase PAK5.

T4 sequence (Q9P286 whole entry): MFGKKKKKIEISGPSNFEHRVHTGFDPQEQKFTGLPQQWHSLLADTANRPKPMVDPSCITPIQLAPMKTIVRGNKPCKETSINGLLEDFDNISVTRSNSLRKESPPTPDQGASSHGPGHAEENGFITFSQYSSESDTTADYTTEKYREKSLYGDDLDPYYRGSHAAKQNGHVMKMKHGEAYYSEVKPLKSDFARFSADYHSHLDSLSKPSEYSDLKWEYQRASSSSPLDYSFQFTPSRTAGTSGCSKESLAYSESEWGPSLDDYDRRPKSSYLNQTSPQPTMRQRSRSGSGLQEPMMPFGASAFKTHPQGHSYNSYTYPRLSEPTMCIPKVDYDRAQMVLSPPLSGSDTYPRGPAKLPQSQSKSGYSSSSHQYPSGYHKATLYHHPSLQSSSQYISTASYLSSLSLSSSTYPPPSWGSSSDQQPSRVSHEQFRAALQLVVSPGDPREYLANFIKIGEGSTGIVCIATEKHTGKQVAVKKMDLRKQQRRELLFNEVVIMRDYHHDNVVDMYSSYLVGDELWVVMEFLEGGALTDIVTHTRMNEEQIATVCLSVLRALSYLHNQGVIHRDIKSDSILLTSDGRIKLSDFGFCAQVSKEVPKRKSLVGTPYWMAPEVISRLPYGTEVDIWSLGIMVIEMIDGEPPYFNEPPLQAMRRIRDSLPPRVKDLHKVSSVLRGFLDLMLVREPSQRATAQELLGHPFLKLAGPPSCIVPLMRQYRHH

As to `O=C(Nc1cnn(-c2csc(C(=O)NC3COC3)c2)c1)Nc1ccccc1Cl` [Compound 17, 4-(4-(3-(2-chlorophenyl)ureido)-1H-pyrazol-1-yl)-N-(oxetan-3-yl)thiophene-2-carboxamide], the remaining activity at 5 µM in assay [1] came to 95.6%; in assay [2] it was 97.7%; in assay [3], 128%; in assay [4] it was 92.1%.
For `O=C(Nc1cnn(-c2csc(C(=O)NC3COC3)c2)c1)Nc1c(F)cccc1Cl` [Compound 25, 4-(4-(3-(2-chloro-6-fluorophenyl)ureido)-1H-pyrazol-1-yl)-N-(oxetan-3-yl)thiophene-2-carboxamide] the same measures were 94.7%, 101%, 101% and 92.9%.
As for `Cc1sc(C(=O)NC2COC2)cc1-n1cc(NC(=O)Nc2c(F)cccc2Cl)cn1` [Compound 27, 4-(4-(3-(2-chloro-6-fluorophenyl)ureido)-1H-pyrazol-1-yl)-5-methyl-N-(oxetan-3-yl)thiophene-2-carboxamide], the remaining activity at 10 µM came out at 86.8% in assay [1] (10 uM), 100% in assay [2] (10 uM), 78.7% in assay [3] (10 uM) and 103% in assay [4] (10 uM).
